Test results taken from patent US12331029B2, “Orexin 1 receptor antagonists” (NXERA PHARMA UK LIMITED, priority 2018, dated 2025).

Tests used:
Human OX2 receptor [1] = target: T1, Human OX2 receptor (Homo sapiens, UniProt O43614); experiment: IPone accumulation assay, CHO cells expressing human OX2 receptor; format: cell-based; details: antagonism of orexin A (EC80) induced inositol phosphate turnover, read-out: fpKb average OX2
T1 sequence (O43614 1-444): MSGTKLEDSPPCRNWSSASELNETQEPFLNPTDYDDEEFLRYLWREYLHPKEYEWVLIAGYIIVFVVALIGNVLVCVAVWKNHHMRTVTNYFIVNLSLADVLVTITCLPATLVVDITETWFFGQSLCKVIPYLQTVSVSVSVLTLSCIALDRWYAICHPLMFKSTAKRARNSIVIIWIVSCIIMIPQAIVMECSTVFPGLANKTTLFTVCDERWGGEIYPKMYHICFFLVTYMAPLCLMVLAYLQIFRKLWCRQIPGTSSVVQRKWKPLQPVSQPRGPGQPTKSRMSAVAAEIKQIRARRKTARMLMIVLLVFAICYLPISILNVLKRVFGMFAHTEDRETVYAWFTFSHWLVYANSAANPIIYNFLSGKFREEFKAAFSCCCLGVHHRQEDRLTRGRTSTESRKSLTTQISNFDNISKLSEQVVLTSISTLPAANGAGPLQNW
Protocol: (§1) Stable cell lines for the human OX1R and OX2R receptors were generated through the transfection of CHO cells using the transfection reagent Genejuice (Novagen number 70967) and cDNA coding for either the human OX1R or OX2R. Cells were cultured in Sigma Nutrient Mixture F-12 Ham media (catalog number N6658) supplemented with 10% heat-inactivated FBS. Forty-eight hours after transfection, cells were harvested and placed under geneticin selection by culturing in Sigma Nutrient Mixture F-12 Ham media supplemented with 10% heat-inactivated FBS and geneticin (ThermoFisher Catalog number: 10131035). Selection of the final stable clone for each receptor was made on the basis of receptor expression, assay signal to noise and robustness though increasing passage. Selected clones for the human OX1R and OX2R were then frozen down into liquid nitrogen using Cell Freezing Medium-DMSO (Sigma-Aldrich catalog number: C6164).
IPone accumulation assay. A CHO cell line stably expressing either human OX1 or OX2 receptor was used with the IPone HTRF assay kit (CisBio: Part #62IPAPEJ) to measure receptor activation. The assay was optimised to measure the ability (potency; fpKb) of antagonists to reduce agonist (orexin A)-induced inositol phosphate turnover. Briefly, cells were plated onto half area 96-well white walled plates at a density of 12,500 cells/well. Sixteen hours post-plating cell growth media was replaced with antagonist concentration-response curve diluted in stimulation buffer (supplied with the kit). […] After 30 min stimulation in a humidified incubator (37° C.) the assay was terminated by the addition of detection mixture as per manufacturer's instructions. The concentration of compound which reduced orexin-A stimulated turnover of inositol phosphates by 50% (IC50) was calculated by fitting to a four parameter sigmoidal dose response curve. The IC50 values were converted to fpKB values using the orexin A pEC50 value estimated on each plate as well as the challenge concentration interpolated from the orexin A control curve.

Human OX2 receptor [2] = target: T1, Human OX2 receptor; experiment: [3H]-radioligand binding assay, human OX2 receptor membranes
Protocol: (§2) Human OX1 or OX2 receptor were cloned into Invitrogen's (ThermoFisher Scientific, UK) Bac-to-Bac Baculovirus Expression System. P0 baculovirus was generated by transfecting SF9 cells with bacmid DNA using Cellfectin® II transfection reagent (ThermoFisher Scientific, UK, Catalog number 10362-100). Following P0 generation P1 virus was then generated ready for large scale infection and membrane preparation. SF21 cells were grown in expression medium ESF921 (Expression Systems, USA, catalog number 96-001-01) supplemented with 10% heat-inactivated FBS and 1% Pen/Strep and were infected at a cell density of 2.5×10^6 cells/mL and a multiplicity of infection of 1.0 for both human OX1R and OX2R. Incubation was carried out at over 48 h in a shaking incubator set at 27° C. The cell culture was then centrifuged at 2,500 rcf for 10 min at 4° C. The pellets were resuspended in cold PBS supplemented with Roche's Complete EDTA-free protease inhibitor cocktail tablets (Roche Applied Sciences, catalog number 05056489001), 1 mM PMSF and 1 mM EDTA. The resuspended cell paste was then centrifuged at 3,273 rcf for 12 min at 4° C. The supernatant was discarded and the pellet frozen at −80° C. The cell pellet from a 4 L culture was resuspended in buffer containing 50 mM HEPES pH 7.5, 150 mM NaCl, 8 Roche EDTA-Free protease inhibitor cocktail tablets and 1 mM PMSF. The suspension was left stirring at rt for 1 h and then homogenised for 90 s at 9,500 rpm using a VDI 25 (VWR, USA) homogeniser. The cells were then lysed using a Microfluidiser processor M-110L Pneumatic (Microfluidics, USA) at 60 PSI and membranes collected by ultracentrifugation at 204.7 k×g for 1 h. The supernatant was discarded and the pellet was resuspended and homogenised in 90 s at 9,500 rpm in 50 mL (25 mL for each 2 L culture) of buffer containing 50 mM Hepes pH 7.5, 150 mM NaCl, 3 Roche EDTA-free protease inhibitor cocktail tablets and 1 mM PMSF. The resulting membranes were then stored at −80° C.
(§3) [^3H]-radioligand binding assay. After thawing, membrane homogenates were re-suspended in the binding buffer (8.5 mM HEPES, pH 7.4, 1.3 mM CaCl2, 1.2 mM MgSO4, 118 mM NaCl, 4.7 mM KCl, 4 mM NaHCO3, 1.2 mM KH2PO4, 11 mM glucose) to a final assay concentration of 6.4 μg (OX1) or 1.4 μg (OX2) protein per well. Saturation isotherms were determined by the addition of various concentrations (0-30 nM) of [^3H]-4-(2,6-difluoro-4-methoxybenzyl)-2-(5,6-dimethoxypyridin-3-yl)-2H-1,2,4-benzothiadiazin-3(4H)-one 1,1-dioxide (Christopher et al, MedChemComm., 2015, 6, 947-955) in a total reaction volume of 250 μL for 90 min at rt. At the end of the incubation, membranes were filtered onto a 96-well GF/B filter pre-incubated with 0.5% polyethylenimine, with a Tomtec cell harvester and washed 5 times with 0.5 mL distilled water. Non-specific binding (NSB) was measured in the presence of 3.33 μM [4-(5-chloro-1,3-benzoxazol-2-yl)-7-methyl-1,4-diazepan-1-yl][5-methyl-2-(2H-1,2,3-triazol-2-yl)phenyl]methanone (Wertz et al, Angew. Chem. Int. Ed., 2011, 50, 11511-11515). Radioactivity on the filter was counted (1 min) on a Microbeta radiometric plate counter (Perkin Elmer) after addition of 50 μL of scintillation fluid (LabLogic: Part #SG-BXX-14). […] IC50 values were derived from the inhibition curve and the equilibrium dissociation constant (Ki) values were calculated using the Cheng-Prusoff equation.

Human OX1 receptor [3] = target: T2, Human OX1 receptor (Homo sapiens, UniProt O43613); experiment: IPone accumulation assay, CHO cells expressing human OX1 receptor; format: cell-based; details: antagonism of orexin A (EC80) induced inositol phosphate turnover, read-out: fpKb average OX1 (converted)
T2 sequence (O43613 1-425): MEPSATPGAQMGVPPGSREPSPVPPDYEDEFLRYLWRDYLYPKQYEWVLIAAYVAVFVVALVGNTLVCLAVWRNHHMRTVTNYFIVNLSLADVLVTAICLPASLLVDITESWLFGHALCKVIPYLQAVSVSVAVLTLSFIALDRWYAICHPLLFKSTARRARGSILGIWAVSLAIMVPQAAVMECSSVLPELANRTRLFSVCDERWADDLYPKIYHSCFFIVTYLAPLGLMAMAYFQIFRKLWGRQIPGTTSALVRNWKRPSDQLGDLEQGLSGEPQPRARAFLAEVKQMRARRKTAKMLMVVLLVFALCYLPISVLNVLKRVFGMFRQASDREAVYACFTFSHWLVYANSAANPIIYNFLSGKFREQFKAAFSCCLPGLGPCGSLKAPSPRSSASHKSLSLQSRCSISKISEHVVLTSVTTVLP
Protocol: as §1
IPone accumulation assay. A CHO cell line stably expressing either human OX1 or OX2 receptor was used with the IPone HTRF assay kit (CisBio: Part #62IPAPEJ) to measure receptor activation. The assay was optimised to measure the ability (potency; fpKb) of antagonists to reduce agonist (orexin A)-induced inositol phosphate turnover. Briefly, cells were plated onto half area 96-well white walled plates at a density of 12,500 cells/well. Sixteen hours post-plating cell growth media was replaced with antagonist concentration-response curve diluted in stimulation buffer (supplied with the kit). Cells were incubated in a humidified incubator (37° C.) for 30 min before an EC80 challenge concentration (˜20 nM (OX1) and 40 nM (OX2)) of orexin A (Tocris catalogue number 1455). After 30 min stimulation in a humidified incubator (37° C.) the assay was terminated by the addition of detection mixture as per manufacturer's instructions. The concentration of compound which reduced orexin-A stimulated turnover of inositol phosphates by 50% (IC50) was calculated by fitting to a four parameter sigmoidal dose response curve. The IC50 values were converted to fpKB values using the orexin A pEC50 value estimated on each plate as well as the challenge concentration interpolated from the orexin A control curve.

Human OX1 receptor [4] = target: T2, Human OX1 receptor; experiment: [3H]-radioligand binding assay, human OX1 receptor membranes
Protocol: as §2, §3

Row | SMILES | Kb (Human OX2 receptor [1]) | Ki (Human OX2 receptor [2]) | Kb (Human OX1 receptor [3]) | Ki (Human OX1 receptor [4]) | Kd (Human OX2 receptor [2]; read-out: KD value of the radioligand, OX2, saturation isotherms) | Kd (Human OX1 receptor [4]; read-out: KD value of the radioligand, OX1, saturation isotherms)
1 | O=C(N[C@H]1CCC[C@@H]1COc1ccc(F)cc1)c1ccccc1-n1nccn1 [Example 1, N-[(1S,2S)-2-[(4-fluorophenoxy)methyl]cyclopentyl]-2-(triazol-2-yl)benzamide] | > 1.58 µM | > 3.16 µM | 0.126 µM | 0.01 µM | – | –
2 | Cc1ccc(-c2ncccn2)c(C(=O)N[C@H]2CCC[C@@H]2COc2ccc(F)cc2)c1 [Example 2, N-[(1S,2S)-2-[(4-fluorophenoxy)methyl]cyclopentyl]-5-methyl-2-pyrimidin-2-yl-benzamide] | > 1.26 µM | > 5.01 µM | 0.0631 µM | 0.00501 µM | – | –
3 | Cc1ccc(-n2nccn2)c(C(=O)N[C@H]2CCC[C@@H]2COc2ccc(F)cc2)c1 [Example 3, N-[(1S,2S)-2-[(4-fluorophenoxy)methyl]cyclopentyl]-5-methyl-2-(triazol-2-yl)benzamide] | – | > 1.26 µM | – | 0.0158 µM | – | –
4 | O=C(N[C@H]1CCC[C@@H]1COc1ccc(F)cc1)c1c(F)cccc1-n1nccn1 [Example 4, 2-fluoro-N-[(1S,2S)-2-[(4-fluorophenoxy)methyl]cyclopentyl]-6-(triazol-2-yl)benzamide] | > 2 µM | > 3.16 µM | 0.0631 µM | 0.00398 µM | – | –
5 | COc1cccc(-n2nccn2)c1C(=O)N[C@H]1CCC[C@@H]1COc1ccc(F)cc1 [Example 5, N-[(1S,2S)-2-[(4-fluorophenoxy)methyl]cyclopentyl]-2-methoxy-6-(triazol-2-yl)benzamide] | > 0.501 µM | 0.2 µM | 0.00158 µM | 0.00158 µM | – | –
6 | COc1cccc(-n2nccn2)c1C(=O)N[C@H]1CCC[C@@H]1COc1ccc(Cl)cc1 [Example 6, N-[(1S,2S)-2-[(4-chlorophenoxy)methyl]cyclopentyl]-2-methoxy-6-(triazol-2-yl)benzamide] | > 0.794 µM | 0.2 µM | 0.00631 µM | 0.00251 µM | – | –
7 | [2H]C([2H])(Oc1ccc(F)cc1)[C@H]1CCC[C@@H]1NC(=O)c1c(OC)cccc1-n1nccn1 [Example 7, N-[(1S,2S)-2-[dideuterio-(4-fluorophenoxy)methyl]cyclopentyl]-2-methoxy-6-(triazol-2-yl)benzamide] | > 0.794 µM | 0.158 µM | 0.000794 µM | 0.00251 µM | – | –
8 | O=C(N[C@H]1CCC[C@@H]1COc1ccc(F)cc1)c1c(OC(F)F)cccc1-n1nccn1 [Example 8, 2-(difluoromethoxy)-N-[(1S,2S)-2-[(4-fluorophenoxy)methyl]cyclopentyl]-6-(triazol-2-yl)benzamide] | > 0.398 µM | 0.631 µM | 0.0794 µM | 0.00631 µM | – | –
9 | COc1cccc(-c2ncccn2)c1C(=O)N[C@H]1CCC[C@@H]1COc1ccc(F)cc1 [Example 9, N-[(1S,2S)-2-[(4-fluorophenoxy)methyl]cyclopentyl]-2-methoxy-6-pyrimidin-2-yl-benzamide] | – | – | 0.01 µM | 0.00398 µM | – | –
10 | O=C(N[C@H]1CCC[C@@H]1COc1ccc(F)cc1)c1c(F)cccc1-c1ncccn1 [Example 10, 2-fluoro-N-[(1S,2S)-2-[(4-fluorophenoxy)methyl]cyclopentyl]-6-pyrimidin-2-yl-benzamide] | > 0.631 µM | 1.58 µM | 0.02 µM | 0.00631 µM | – | –
11 | COc1cccc(-c2cnccn2)c1C(=O)N[C@H]1CCC[C@@H]1COc1ccc(F)cc1 [Example 11, N-[(1S,2S)-2-[(4-fluorophenoxy)methyl]cyclopentyl]-2-methoxy-6-pyrazin-2-yl-benzamide] | > 0.631 µM | – | 0.02 µM | 0.00794 µM | – | –
12 | COc1cccc(-c2ccncn2)c1C(=O)N[C@H]1CCC[C@@H]1COc1ccc(F)cc1 [Example 12, N-[(1S,2S)-2-[(4-fluorophenoxy)methyl]cyclopentyl]-2-methoxy-6-pyrimidin-4-yl-benzamide] | > 0.631 µM | 1 µM | 0.0126 µM | 0.00316 µM | – | –
13 | COc1cccc(-c2ncc(F)cn2)c1C(=O)N[C@H]1CCC[C@@H]1COc1ccc(F)cc1 [Example 13, N-[(1S,2S)-2-[(4-fluorophenoxy)methyl]cyclopentyl]-2-(5-fluoropyrimidin-2-yl)-6-methoxy-benzamide] | > 0.631 µM | 1.58 µM | 0.0316 µM | 0.0126 µM | – | –
14 | [2H]C([2H])([2H])Oc1cccc(-n2nccn2)c1C(=O)N[C@H]1CCC[C@@H]1COc1ccc(F)cc1 [Example 14, N-[(1S,2S)-2-[(4-fluorophenoxy)methyl]cyclopentyl]-2-(triazol-2-yl)-6-(trideuteriomethoxy)benzamide] | > 0.501 µM | 0.126 µM | 0.001 µM | 0.00126 µM | – | –
15 | O=C(N[C@H]1CCC[C@@H]1COc1ccc(F)cc1)c1c(OC(F)F)cccc1-c1ncccn1 [Example 15, 2-(difluoromethoxy)-N-[(1S,2S)-2-[(4-fluorophenoxy)methyl]cyclopentyl]-6-pyrimidin-2-yl-benzamide] | > 2.51 µM | > 1.26 µM | 0.158 µM | 0.0126 µM | – | –
16 | COc1ccc(F)c(-n2nccn2)c1C(=O)N[C@H]1CCC[C@@H]1COc1ccc(F)cc1 [Example 16, 3-fluoro-N-[(1S,2S)-2-[(4-fluorophenoxy)methyl]cyclopentyl]-6-methoxy-2-(triazol-2-yl)benzamide] | > 0.631 µM | 1.58 µM | 0.02 µM | 0.0126 µM | – | –
17 | COc1cccc(-n2nccn2)c1C(=O)N[C@H]1CCC[C@@H]1COc1ccc(F)cn1 [Example 31, N-[(1S,2S)-2-[(5-fluoro-2-pyridyl)oxymethyl]cyclopentyl]-2-methoxy-6-(triazol-2-yl)benzamide] | – | – | 0.01 µM | 0.00631 µM | – | –
18 | [2H]C([2H])([2H])Oc1cccc(-n2nccn2)c1C(=O)N[C@H]1CCC[C@@H]1COc1ccc(F)cn1 [Example 33, N-[(1S,2S)-2-[(5-fluoro-2-pyridyl)oxymethyl]cyclopentyl]-2-(triazol-2-yl)-6-(trideuteriomethoxy)benzamide] | – | – | 0.0158 µM | 0.00398 µM | – | –
19 | COc1cc(F)c(CN2C(=O)N(c3cnc(OC)c(OC)c3)S(=O)(=O)c3ccccc32)c(F)c1 [[^3H]-4-(2,6-difluoro-4-methoxybenzyl)-2-(5,6-dimethoxypyridin-3-yl)-2H-1,2,4-benzothiadiazin-3(4H)-one 1,1-dioxide, reference compound] | – | – | – | – | 0.00075 µM | 0.0015 µM
